The results in this text go back to US8129366B2, “VLA-4 inhibitory drug” (Daiichi Sankyo Company, Limited, priority 2005, dated 2012).

For this test, the target named is T1, hα4 and β1 integrins (Homo sapiens, UniProt P05556+P13612).
T1 construct: expressed in transfected cells; host or cells: CHO cells
Nature of the test: In vitro inhibition of binding between CHO cells expressing hα4 and β1 integrins and Eu3+-hVCAM-1 D1D7-IgG. The following applies: for Ki: CHO cells expressing hα4 and β1 integrins, Eu3+-hVCAM-1 D1D7-IgG ligand, without HSA; for IC50: in the presence of 3% human serum albumin (HSA final concentration 3%). In short, it runs like this: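 Bound europium-labelled VCAM-1 D1D7-IgG on α4β1-expressing CHO cells was measured by time-resolved fluorescence after washing at 4 °C. Ligand (2 nM working dilution) and test compound, with or without 3% final HSA, were co-incubated for 1 h at room temperature in Mn²⁺-containing HEPES buffer, pH 7.5. IC50 came from % binding inhibition; Ki was calculated from ligand concentration and Scatchard Kd.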

T1 sequence (P13612 34-1032): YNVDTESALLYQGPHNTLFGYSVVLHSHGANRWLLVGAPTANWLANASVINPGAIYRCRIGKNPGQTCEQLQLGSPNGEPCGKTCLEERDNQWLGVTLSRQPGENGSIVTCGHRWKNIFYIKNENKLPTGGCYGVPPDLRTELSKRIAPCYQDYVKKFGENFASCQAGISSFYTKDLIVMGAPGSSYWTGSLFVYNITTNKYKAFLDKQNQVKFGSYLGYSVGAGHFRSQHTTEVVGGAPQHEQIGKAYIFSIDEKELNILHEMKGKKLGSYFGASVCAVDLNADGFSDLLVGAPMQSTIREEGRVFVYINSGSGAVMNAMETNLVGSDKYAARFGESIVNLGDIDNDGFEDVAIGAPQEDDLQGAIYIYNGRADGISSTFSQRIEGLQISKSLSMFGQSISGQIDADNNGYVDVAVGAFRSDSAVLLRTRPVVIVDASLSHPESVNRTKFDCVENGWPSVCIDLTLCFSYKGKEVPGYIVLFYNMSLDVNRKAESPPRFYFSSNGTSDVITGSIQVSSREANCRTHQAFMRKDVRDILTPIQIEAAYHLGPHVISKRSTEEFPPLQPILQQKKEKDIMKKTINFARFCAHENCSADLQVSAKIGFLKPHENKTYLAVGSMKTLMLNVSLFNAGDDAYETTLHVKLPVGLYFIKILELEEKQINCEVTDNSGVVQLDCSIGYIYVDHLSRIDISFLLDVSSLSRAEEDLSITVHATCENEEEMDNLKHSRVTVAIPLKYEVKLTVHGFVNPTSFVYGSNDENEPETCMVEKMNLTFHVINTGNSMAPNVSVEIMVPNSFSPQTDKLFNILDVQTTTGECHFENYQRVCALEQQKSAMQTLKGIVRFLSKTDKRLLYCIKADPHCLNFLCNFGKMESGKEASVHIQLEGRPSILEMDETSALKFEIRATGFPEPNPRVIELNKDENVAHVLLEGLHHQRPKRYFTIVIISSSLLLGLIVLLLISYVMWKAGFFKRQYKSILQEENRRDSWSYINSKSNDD
T1 sequence (P05556 21-798): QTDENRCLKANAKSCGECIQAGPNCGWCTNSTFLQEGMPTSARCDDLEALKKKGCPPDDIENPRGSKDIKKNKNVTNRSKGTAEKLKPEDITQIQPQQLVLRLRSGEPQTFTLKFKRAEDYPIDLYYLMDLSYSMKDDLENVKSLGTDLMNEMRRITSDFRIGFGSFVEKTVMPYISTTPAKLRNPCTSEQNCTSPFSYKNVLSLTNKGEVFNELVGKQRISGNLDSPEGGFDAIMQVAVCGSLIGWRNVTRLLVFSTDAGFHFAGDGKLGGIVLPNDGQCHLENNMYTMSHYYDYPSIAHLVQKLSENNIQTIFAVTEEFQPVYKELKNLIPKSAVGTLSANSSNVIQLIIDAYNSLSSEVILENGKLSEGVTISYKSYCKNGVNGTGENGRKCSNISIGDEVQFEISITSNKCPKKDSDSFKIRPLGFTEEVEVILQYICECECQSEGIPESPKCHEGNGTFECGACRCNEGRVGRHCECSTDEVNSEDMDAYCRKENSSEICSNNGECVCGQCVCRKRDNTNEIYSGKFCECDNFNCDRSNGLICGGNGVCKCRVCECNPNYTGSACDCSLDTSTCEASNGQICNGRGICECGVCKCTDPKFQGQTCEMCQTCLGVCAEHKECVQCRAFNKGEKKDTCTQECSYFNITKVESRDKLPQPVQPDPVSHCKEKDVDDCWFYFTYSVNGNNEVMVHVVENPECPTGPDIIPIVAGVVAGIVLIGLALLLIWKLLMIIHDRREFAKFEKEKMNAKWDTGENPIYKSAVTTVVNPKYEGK

Usually Ki stands for the equilibrium dissociation constant of an inhibitor or competing ligand from its target. Broadly, the IC50 is the concentration that inhibits the measured activity by half. `O=C(Nc1cc(F)c(CC(=O)N2C[C@@H](N3CCN(CC(F)(F)F)CC3)C[C@H]2CO[C@H]2CC[C@H](C(=O)O)CC2)cc1Cl)c1csc2ccccc12` [Example 123, Trans-4-[1-[[4-[(benzo[b]thiophen-3-ylcarbonyl)amino]-5-chloro-2-fluorophenyl]acetyl]-(4S)-[4-(2,2,2-trifluoroethyl)piperazin-1-yl]-(2S)-pyrrolidinylmethoxy]cyclohexanecarboxylic acid]: the Ki came to 1.8 nM and the IC50 was determined as 10 nM.
In the same order, the values of `O=C(Nc1cc(Cl)c(CC(=O)N2C[C@@H](N3CCN(CC(F)(F)F)CC3)C[C@H]2CO[C@H]2CC[C@H](C(=O)O)CC2)cc1Cl)c1coc2ccccc12` [Example 125, Trans-4-[1-[[4-[(benzo[b]furan-3-ylcarbonyl)amino]-2,5-dichlorophenyl]acetyl]-(4S)-[4-(2,2,2-trifluoroethyl)piperazin-1-yl]-(2S)-pyrrolidinylmethoxy]cyclohexanecarboxylic acid] are 3.4 nM and 26 nM.
Taken in the same sequence, the figures for `O=C(Nc1cc(F)c(CC(=O)N2C[C@@H](N3CCN(CC(F)(F)F)CC3)C[C@H]2CO[C@H]2CC[C@H](C(=O)O)CC2)cc1Cl)c1coc2ccccc12` [Example 126, Trans-4-[1-[[4-[(benzo[b]furan-3-ylcarbonyl)amino]-5-chloro-2-fluorophenyl]acetyl]-(4S)-[4-(2,2,2-trifluoroethyl)piperazin-1-yl]-(2S)-pyrrolidinylmethoxy]cyclohexanecarboxylic acid] were 2.4 nM and 13 nM.
As for `Cn1nc(C(=O)Nc2ccc(CC(=O)N3C[C@@H](N4CCN(CC(F)(F)F)CC4)C[C@H]3CO[C@H]3CC[C@H](C(=O)O)CC3)cc2Cl)c2ccccc21` [Example 128, Trans-4-[1-[[3-chloro-4-[(1-methyl-1H-indazol-3-ylcarbonyl)amino]phenyl]acetyl]-(4S)-[4-(2,2,2-trifluoroethyl)piperazin-1-yl]-(2S)-pyrrolidinylmethoxy]cyclohexanecarboxylic acid], the affinity, expressed as Ki, was 3.9 nM and the half-inhibitory concentration (IC50) worked out at 13 nM.
In the same order, the values of `O=C(Nc1cc(Cl)c(CC(=O)N2C[C@@H](N3CCN(CC(F)(F)F)CC3)C[C@H]2CO[C@H]2CC[C@H](C(=O)O)CC2)cc1Cl)c1c[nH]c2ccccc12` [Example 129, Trans-4-[1-[[2,5-dichloro-4-[(1H-indol-3-ylcarbonyl)amino]phenyl]acetyl]-(4S)-[4-(2,2,2-trifluoroethyl)piperazin-1-yl]-(2S)-pyrrolidinylmethoxy]cyclohexanecarboxylic acid] are 0.93 nM and 1.9 nM.
In the same order, the values of `Cn1cc(C(=O)Nc2ccc(CC(=O)N3C[C@@H](N4CCN(CC(F)(F)F)CC4)C[C@H]3CO[C@H]3CC[C@H](C(=O)O)CC3)cc2Cl)c2ccccc21` [Example 130, Trans-4-[1-[[3-chloro-4-[(1-methyl-1H-indol-3-ylcarbonyl)amino]phenyl]acetyl]-(4S)-[4-(2,2,2-trifluoroethyl)piperazin-1-yl]-(2S)-pyrrolidinylmethoxy]cyclohexanecarboxylic acid] are 2.7 nM and 7.5 nM.
With `O=C(Nc1cc(F)c(CC(=O)N2C[C@@H](N3CCN(CC(F)(F)F)CC3)C[C@H]2CO[C@H]2CC[C@H](C(=O)O)CC2)cc1Cl)c1c[nH]c2ccccc12` [Example 131, Trans-4-[1-[[5-chloro-2-fluoro-4-[(1H-indol-3-ylcarbonyl)amino]phenyl]acetyl]-(4S)-[4-(2,2,2-trifluoroethyl)piperazin-1-yl]-(2S)-pyrrolidinylmethoxy]cyclohexanecarboxylic acid], the inhibition constant Ki was 1.1 nM and the half-inhibitory concentration (IC50) was found to be 1.8 nM.
Regarding `O=C(Nc1ccc(CC(=O)N2C[C@@H](N3CCN(CC(F)(F)F)CC3)C[C@H]2CO[C@H]2CC[C@H](C(=O)O)CC2)cc1Cl)c1coc2ccccc12` [Example 132, Trans-4-[1-[[4-[(benzo[b]furan-3-ylcarbonyl)amino]-3-chlorophenyl]acetyl]-(4S)-[4-(2,2,2-trifluoroethyl)piperazin-1-yl]-(2S)-pyrrolidinylmethoxy]cyclohexanecarboxylic acid], the inhibition constant Ki turned out to be 1.7 nM and the 50% inhibitory concentration (IC50) is 4 nM.
Regarding `COc1cc(CC(=O)N2C[C@@H](N3CCN(CC(F)(F)F)CC3)C[C@H]2CO[C@H]2CC[C@H](C(=O)O)CC2)ccc1NC(=O)c1csc2ccccc12` [Example 133, Trans-4-[1-[[4-[(benzo[b]thiophen-3-ylcarbonyl)amino]-3-methoxyphenyl]acetyl]-(4S)-[4-(2,2,2-trifluoroethyl)piperazin-1-yl]-(2S)-pyrrolidinylmethoxy]cyclohexanecarboxylic acid], the inhibition constant (Ki) amounted to 1.3 nM and the IC50 worked out at 3.3 nM.
Taken in the same sequence, the figures for `O=C(Nc1ccc(CC(=O)N2C[C@@H](N3CCN(CC(F)(F)F)CC3)C[C@H]2CO[C@H]2CC[C@H](C(=O)O)CC2)cc1Cl)c1csc2ccccc12` [Example 134, Trans-4-[1-[[4-[(benzo[b]thiophen-3-ylcarbonyl)amino]-3-chlorophenyl]acetyl]-(4S)-[4-(2,2,2-trifluoroethyl)piperazin-1-yl]-(2S)-pyrrolidinylmethoxy]cyclohexanecarboxylic acid] were 1.2 nM and 6.8 nM.
In the same order, the values of `COc1cc(CC(=O)N2C[C@@H](N3CCN(CC(F)(F)F)CC3)C[C@H]2CO[C@H]2CC[C@H](C(=O)O)CC2)ccc1NC(=O)c1cn(C)c2ccccc12` [Example 135, Trans-4-[1-[[3-methoxy-4-[(1-methyl-1H-indol-3-ylcarbonyl)amino]phenyl]acetyl]-(4S)-[4-(2,2,2-trifluoroethyl)piperazin-1-yl]-(2S)-pyrrolidinylmethoxy]cyclohexanecarboxylic acid] are 1.7 nM and 4.4 nM.
In the same order, the values of `COCCN1CCN([C@H]2C[C@@H](CO[C@H]3CC[C@H](C(=O)O)CC3)N(C(=O)Cc3cc(Cl)c(NC(=O)c4cn(C)c5ccccc45)cc3Cl)C2)CC1` [Example 137, Trans-4-[1-[[2,5-dichloro-4-[(1-methyl-1H-indol-3-ylcarbonyl)amino]phenyl]acetyl]-(4S)-(4-(2-methoxyethyl)piperazin-1-yl)-(2S)-pyrrolidinylmethoxy]cyclohexanecarboxylic acid] are 2.9 nM and 8.7 nM.
Take `O=C(Nc1cc(Cl)c(CC(=O)N2C[C@@H](N3CCN(C4CC4)CC3)C[C@H]2CO[C@H]2CC[C@H](C(=O)O)CC2)cc1Cl)c1csc2ccccc12` [Example 138, Trans-4-[1-[[4-[(benzo[b]thiophen-3-ylcarbonyl)amino]-2,5-dichlorophenyl]acetyl]-(4S)-(4-cyclopropylpiperazin-1-yl)-(2S)-pyrrolidinylmethoxy]cyclohexanecarboxylic acid]: the affinity, expressed as Ki, was 0.91 nM and the half-maximal inhibitory concentration (IC50) came to 7.7 nM.
Take `O=C(Nc1cc(Cl)c(CC(=O)N2C[C@@H](N3CCN(C4CC4)CC3)C[C@H]2CO[C@H]2CC[C@H](C(=O)O)CC2)cc1Cl)c1coc2ccccc12` [Example 140]: the inhibition constant (Ki) amounted to 1.8 nM and the IC50 stood at 7.6 nM.
Taken in the same sequence, the figures for `Cn1cc(C(=O)Nc2cc(F)c(CC(=O)N3C[C@@H](N4CCN(C5(C)CC5)CC4)C[C@H]3CO[C@H]3CC[C@H](C(=O)O)CC3)cc2Cl)c2ccccc21` [Example 141, Trans-4-[1-[[5-chloro-2-fluoro-4-[(1-methyl-1H-indol-3-ylcarbonyl)amino]phenyl]acetyl]-(4S)-[4-(1-methylcyclopropan-1-yl)piperazin-1-yl]-(2S)-pyrrolidinylmethoxy]cyclohexa necarboxylic acid] were 6.3 nM and 23 nM.
Consider `Cn1cc(C(=O)Nc2cc(F)c(CC(=O)N3C[C@@H](N4CCN(C5CCCC5)CC4)C[C@H]3CO[C@H]3CC[C@H](C(=O)O)CC3)cc2Cl)c2ccccc21` [Example 142, Trans-4-[1-[[5-chloro-2-fluoro-4-[(1-methyl-1H-indol-3-ylcarbonyl)amino]phenyl]acetyl]-(4S)-[4-cyclopentylpiperazin-1-yl]-(2S)-pyrrolidinylmethoxy]cyclohexanecarboxylic acid], for which the Ki stood at 4.7 nM and the IC50 worked out at 11 nM.
Take `O=C(Nc1cc(Cl)c(CC(=O)N2C[C@@H](N3CCN(C4CCCCC4)CC3)C[C@H]2CO[C@H]2CC[C@H](C(=O)O)CC2)cc1Cl)c1coc2ccccc12` [Example 143, Trans-4-[1-[[4-[(benzo[b]furan-3-ylcarbonyl)amino]-2,5-dichlorophenyl]acetyl]-(4S)-[4-cyclohexylpiperazin-1-yl]-(2S)-pyrrolidinylmethoxy]cyclohexanecarboxylic acid]: the inhibition constant Ki is 3.5 nM and the 50% inhibitory concentration (IC50) came to 14 nM.
In the same order, the values of `Cn1cc(C(=O)Nc2cc(F)c(CC(=O)N3C[C@@H](N4CCN(c5ccncc5)CC4)C[C@H]3CO[C@H]3CC[C@H](C(=O)O)CC3)cc2Cl)c2ccccc21` [Example 145, Trans-4-[1-[[5-chloro-2-fluoro-4-[(1-methyl-1H-indol-3-ylcarbonyl)amino]phenyl]acetyl]-(4S)-[4-(4-pyridyl)piperazin-1-yl]-(2S)-pyrrolidinylmethoxy]cyclohexanecarboxylic acid] are 3.9 nM and 11 nM.
In the same order, the values of `C[C@@H]1CN([C@H]2C[C@@H](CO[C@H]3CC[C@H](C(=O)O)CC3)N(C(=O)Cc3cc(Cl)c(NC(=O)c4coc5ccccc45)cc3F)C2)C[C@H](C)N1C` [Example 146, Trans-4-[1-[[4-[(benzo[b]furan-3-ylcarbonyl)amino]-5-chloro-2-fluorophenyl]acetyl]-(4S)-(cis-1,2,6-trimethylpiperazin-4-yl)-(2S)-pyrrolidinylmethoxy]cyclohexanecarboxylic acid] are 2.6 nM and 7.6 nM.
